Measured values reported in patent publication US11254690B2, “PTEFb inhibiting macrocyclic compounds” (BAYER AKTIENGESELLSCHAFT, priority 2017, dated 2022).

Key:
[1] = molecular target: T1, CDK2/CycE (Homo sapiens, UniProt P24941); experiment: CDK2/CycE high ATP kinase assay (TR-FRET, 2 mM ATP); type: biochemical; settings: Method 2b
T1 construct: GST; purchased ProQinase GmbH (Freiburg, Germany); host or cells: insect cells (Sf9)
Summary of the method: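 Recombinant GST-tagged human CDK2 and CycE from Sf9 cells (about 10 ng/ml), biotinylated peptide substrate, 2 mM ATP, Tris pH 8.0 buffer; compound pre-incubated 15 min at 22° C. Phospho-substrate detected by TR-FRET with anti-RB(pSer807/pSer811) antibody, 665/622 nm ratio; normalised to no-inhibitor and no-enzyme controls.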

[2] = test system: B16F10 cells; experiment: Proliferation assay, B16F10; type: cell-based; settings: Mus musculus, B16-F10, 96 h; 4 days, crystal violet; read-out: Inhibition of B16F10 cell proliferation IC50
Procedure: Cultivated tumour cells (HeLa, human cervical tumour cells, ATCC CCL-2; NCI-H460, human non-small cell lung carcinoma cells, ATCC HTB-177; DU 145, hormone-independent human prostate carcinoma cells, ATCC HTB-81; HeLa-MaTu-ADR, multidrug-resistant human cervical carcinoma cells, EPO-GmbH Berlin; Caco-2, human colorectal carcinoma cells, ATCC HTB-37; B16F10, mouse melanoma cells, ATCC CRL-6475) were plated at a density of 5,000 cells/well (DU145, HeLa-MaTu-ADR), 3,000 cells/well (NCI-H460, HeLa), 1,500 cells/well (Caco-2), or 1,000 cells/well (B16F10) in a 96-well multititer plate in 200 μL of their respective growth medium supplemented 10% fetal calf serum. After 24 hours, the cells of one plate (zero-point plate) were stained with crystal violet (see below), while the medium of the other plates was supplemented with the test substances in various concentrations (0 μM, as well as in the range of 0.0001-10 μM; the final concentration of the solvent dimethyl sulfoxide was adjusted to 0.1%) using a Hewlett-Packard HP D300 Digital Dispenser. The cells were incubated for 4 days in the presence of test substances. Cell proliferation was determined by staining the cells with crystal violet: the cells were fixed by adding 20 μl/measuring point of an 11% glutaric aldehyde solution for 15 minutes at room temperature. After three washing cycles of the fixed cells with water, the plates were dried at room temperature. The cells were stained by adding 100 μl/measuring point of a 0.1% crystal violet solution (pH 3.0). After three washing cycles of the stained cells with water, the plates were dried at room temperature. The dye was dissolved by adding 100 μl/measuring point of a 10% acetic acid solution. The extinction was determined by photometry at a wavelength of 595 nm. The change of cell number, in percent, was calculated by normalization of the measured values to the extinction values of the zero-point plate (=0%) and the extinction of the untreated ([…]) cells (=100%). The IC50 values (inhibitory concentration at 50% of maximal effect) were determined by means of a 4 parameter fit. A2780 human ovarian carcinoma cells (ECACC #93112519) and non-adherent MOLM-13 human acute myeloid leukemia cells (DSMZ ACC 554) were seeded at a density of 3,000 cell/well (A2780) or 5,000 cells/well (MOLM-13) in a 96-well multititer plate in 150 μL of growth medium supplemented 10% fetal calf serum. After 24 hours, cell viability of one plate (zero-point plate) was determined with the Cell Titre-Glo Luminescent Cell Viability Assay (Promega), while the medium of the other plates was supplemented with the test substances in various concentrations (0 μM, as well as in the range of 0.0001-10 μM; the final concentration of the solvent dimethyl sulfoxide was adjusted to 0.1%) using a Hewlett-Packard HP D300 Digital Dispenser. Cell viability was assessed after 72-hour exposure with the Cell Titre-Glo Luminescent Cell Viability Assay (Promega). IC50 values (inhibitory concentration at 50% of maximal effect) were determined by means of a 4 parameter fit on measurement data which were normalized to vehicle (DMSO) treated cells (=100%) and measurement readings taken immediately before compound exposure (=0%).

Row | IC50 [1] | IC50 [2] | SMILES
1 | > 20000 nM | 270 nM | CC(C)(C)OC(=O)N=S(C)(=O)Cc1cc2cc(c1)OCCCCOc1cc(ccc1F)-c1nc(ncc1F)N2 (racemic) [Example 3, (rac)-tert-butyl [{[3,20-difluoro-13,18-dioxa-5,7,25-triazatetracyclo[17.3.1.1^2,6.1^8,12]pentacosa-1(23),2(25),3,5,8(24),9,11,19,21-nonaen-10-yl]methyl}(methyl)oxido-λ^6-sulfanylidene]carbamate]
2 | 1540 nM | 176 nM | CS(=N)(=O)Cc1cc2cc(c1)OCCCCOc1cc(ccc1F)-c1nc(ncc1F)N2 (racemic) [Example 4, (rac)-3,20-difluoro-10-[(S-methylsulfonimidoyl)methyl]-13,18-dioxa-5,7,25-triazatetracyclo[17.3.1.1^2,6.1^8,12]pentacosa-1(23),2(25),3,5,8(24),9,11,19,21-nonaene]
3 | 360 nM |  | CC1CCCOc2cc(ccc2F)-c2cc(ncc2F)Nc2cc(CS(C)(=O)=O)cc(n2)O1 (racemic) [Example 28, 3,20-difluoro-14-methyl-10-[(methylsulfonyl)methyl]-13,18-dioxa-5,7,24-triazatetracyclo[17.3.1.1^2,6.1^8,12]pentacosa-1(23),2(25),3,5,8(24),9,11,19,21-nonaene]
4 | 144 nM |  | CC1CCCOc2cc(ccc2F)-c2cc(ncc2F)Nc2cc(CS(C)(=N)=O)cc(n2)O1 (single isomer, unassigned) [Example 16, 3,20-difluoro-14-methyl-10-[(S-methylsulfonimidoyl)methyl]-13,18-dioxa-5,7,24-triazatetracyclo[17.3.1.1^2,6.1^8,12]pentacosa-1(23),2(25),3,5,8(24),9,11,19,21-nonaene]
5 | 2450 nM |  | CC1CCCCOc2cc(ccc2F)-c2cc(ncc2F)Nc2cc(CS(C)(=N)=O)cc(n2)O1 (single isomer, unassigned) [Example 21, 3,21-difluoro-14-methyl-10-[(S-methylsulfonimidoyl)methyl]-13,19-dioxa-5,7,25-triazatetracyclo[18.3.1.1^2,6.1^8,12]hexacosa-1(24),2(26),3,5,8(25),9,11,20,22-nonaene]

Continued, molecule first:

Row | SMILES | IC50 [1] | IC50 [2]
6 | CS(=N)(=O)Cc1cc2nc(c1)OCCCCOc1cc(ccc1F)-c1cc(ncc1F)N2 (racemic) [Example 2, (rac)-3,20-difluoro-10-[(S-methylsulfonimidoyl)methyl]-13,18-dioxa-5,7,24-triazatetracyclo[17.3.1.1^2,6.1^8,12]pentacosa-1(23),2(25),3,5,8(24),9,11,19,21-nonaene] | 737 nM | 110 nM
7 | CC(C)(C)OC(=O)N=S(C)(=O)Cc1cc2cc(c1)OCCCCCOc1cc(ccc1F)-c1nc(ncc1F)N2 (racemic) [Example 5, (rac)-tert-butyl [{[3,21-difluoro-13,19-dioxa-5,7,26-triazatetracyclo[18.3.1.1^2,6.1^8,12]hexacosa-1(24),2(26),3,5,8(25),9,11,20,22-nonaen-10-yl]methyl}(methyl)oxido-λ^6-sulfanylidene]carbamate] | > 20000 nM | 993 nM
8 | CS(=N)(=O)Cc1cc2cc(c1)OCCCCCOc1cc(ccc1F)-c1nc(ncc1F)N2 (racemic) [Example 6, (rac)-3,21-difluoro-10-[(S-methylsulfonimidoyl)methyl]-13,19-dioxa-5,7,26-triazatetracyclo[18.3.1.1^2,6.1^8,12]hexacosa-1(24),2(26),3,5,8(25),9,11,20,22-nonaene] | 16200 nM | 171 nM
9 | CS(=N)(=O)Cc1cc2cc(c1)OCCCCOc1c(F)ccc(c1F)-c1nc(ncc1F)N2 (racemic) [Example 8, (rac)-3,20,23-trifluoro-10-[(S-methylsulfonimidoyl)methyl]-13,18-dioxa-5,7,25-triazatetracyclo[17.3.1.1^2,6.1^8,12]pentacosa-1(23),2(25),3,5,8(24),9,11,19,21-nonaene] | 6520 nM | 224 nM
10 | CS(=N)(=O)Cc1cc2cc(c1)OCCCOc1cc(ccc1F)-c1nc(ncc1F)N2 (racemic) [Example 10, (rac)-3,19-difluoro-10-[(S-methylsulfonimidoyl)methyl]-13,17-dioxa-5,7,24-triazatetracyclo[16.3.1.1^2,6.1^8,12]tetracosa-1(22),2(24),3,5,8(23),9,11,18,20-nonaene] | 4750 nM | 209 nM
11 | CC1CCCOc2cc(ccc2F)-c2cc(ncc2F)Nc2cc(CS(C)(=N)=O)cc(n2)O1 (single isomer, unassigned) [Example 17, 3,20-difluoro-14-methyl-10-[(S-methylsulfonimidoyl)methyl]-13,18-dioxa-5,7,24-triazatetracyclo[17.3.1.1^2,6.1^8,12]pentacosa-1(23),2(25),3,5,8(24),9,11,19,21-nonaene] | 132 nM | 
12 | CC1CCCCOc2cc(ccc2F)-c2cc(ncc2F)Nc2cc(CS(C)(=N)=O)cc(n2)O1 (single isomer, unassigned) [Example 22, 3,21-difluoro-14-methyl-10-[(S-methylsulfonimidoyl)methyl]-13,19-dioxa-5,7,25-triazatetracyclo[18.3.1.1^2,6.1^8,12]hexacosa-1(24),2(26),3,5,8(25),9,11,20,22-nonaene] | 501 nM | 
